Measurements reported in patent US10722436B2, “Topical compositions” (MARY KAY INC., priority 2015, dated 2020).
Where no end group is shown, it is not given here. The star is where a group is joined. Hexanoyl = CCCCCC(=O)*

Assays:
[1] = system: B16-F1 melanocytes; test: B16 Pigmentation Assay (melanin secretion); format: cell-based, mouse; settings: B16-F1 cells, 6 days
Method: Melanogenesis is the process by which melanocytes produce melanin, a naturally produced pigment that imparts color to skin, hair, and eyes. Inhibiting melanogenesis is beneficial to prevent skin darkening and lighten dark spots associated with aging. Melanogenesis in B16 cells was determined in the presence or absence of niacinamide by measuring melanin secretion. It was determined that niacinamide inhibits melanogenesis by 30%.
Melanogenesis was determined using B16-F1 melanocytes (ATCC), an immortalized mouse melanoma cell line. The endpoint of this assay was a spectrophotometric measurement of melanin production and cellular viability. B16-F1 melanocytes, were cultivated in standard DMEM growth medium with 10% fetal bovine serum (Mediatech) at 37° C. in 10% CO2 and then treated with or without niacinamide for 6 days. Following incubation, melanin secretion was measured by absorbance at 405 nm and cellular viability was quantified.

[2] = system: mushroom tyrosinase; test: Mushroom Tyrosinase Activity Assay; format: biochemical; settings: substrate L-Dopa
Method: In mammalian cells, tyrosinase catalyzes two steps in the multi-step biosynthesis of melanin pigments from tyrosine (and from the polymerization of dopachrome). Tyrosinase is localized in melanocytes and produces melanin (aromatic quinone compounds) that imparts color to skin, hair, and eyes. The activity of tyrosinase on its substrate L-Dopa in the presence or absence of oligopeptide-1 was determined using a colorimetric mushroom tyrosinase activity assay. It was determined that oligopeptide-1 inhibits tyrosinase by 40%. Tyrosinase activity was assayed by measuring the ability of purified mushroom tyrosinase (Sigma) to oxidize its substrate, L-Dopa (Fisher), in the presence or absence of oligopeptide-1. Oxidation of L-DOPA by the tyrosinase produced a pigment that was evaluated by colorimetric plate reading at 490 nm. The percent inhibition of mushroom tyrosinase activity was calculated and compared to non-treated controls to determine the ability of test ingredients to inhibit the activity of purified enzyme. Test inhibition was compared with that of the known tyrosinase inhibitor kojic acid (Sigma).

[3] = system: TNF-α production in keratinocytes; test: Inhibition of Tumor Necrosis Factor Alpha (ELISA, PMA-treated keratinocytes); format: cell-based, human; settings: PMA 10 ng/ml, 6 hours
Method: TNF-α is the prototype ligand of the TNF superfamily. It is a pleiotropic cytokine that plays a central role in inflammation. Increase in its expression is associated with an up regulation in pro-inflammatory activity. The bioassay used to analyze the effect of oligopeptide-1 and Opuntia ficus-indica extract used a spectrophotometric measurement that reflects the presence of TNF-α and cellular viability. It was determined that oligopeptide-1 and Opuntia ficus-indica extract inhibits TNF-α production in keratinocytes by 40% and 50%.
Subconfluent normal human adult keratinocytes (Cascade Biologics) cultivated in EpiLife standard growth medium (Cascade Biologics) at 37° C. in 5% CO2, were treated with phorbol 12-myristate 13-acetate (PMA, 10 ng/ml, Sigma Chemical, #P1585-1MG) and either oligopeptide-1 or Opuntia ficus-indica extract (treated samples) or no additional treatment (untreated sample) for 6 hours. PMA causes a dramatic increase in TNF-α secretion which peaks at 6 hours after treatment. Following incubation, cell culture medium was collected and the amount of TNF-a secretion quantified using a sandwich enzyme linked immuno-sorbant assay (ELISA) from R&D Systems (#DTA00C).
Briefly, the ELISA assay employed the quantitative sandwich enzyme immunoassay technique whereby a monoclonal antibody specific for TNF-α was been pre-coated onto a microplate. […]

[4] = system: procollagen peptide production in human epidermal fibroblasts; test: Collagen Stimulation Assay (procollagen peptide ELISA); format: cell-based; settings: 3 days
Method: Collagen is an extracellular matrix protein critical for skin structure. Increased synthesis of collagen helps improve skin firmness and elasticity. Collagen stimulation was determined using a sandwich enzyme linked immuno-sorbant assay (ELISA) from Takara (#MK101) by measuring production of procollagen peptide (a precursor to collagen) in human epidermal fibroblasts incubated in the presence or absence of oligopeptide-1 or Prunus mume extract. It was determined that oligopeptide-1 increased collagen stimulation by 20% and Prunus mume extract increased collagen stimulation by 71%.
Collagen stimulation can be monitored by a spectrophotometric measurement that reflects the presence of procollagen peptide and cellular viability. The assay employs the quantitative sandwich enzyme immunoassay technique whereby a monoclonal antibody specific for procollagen peptide has been pre-coated onto microplate wells. […] Following incubation, cell culture medium was collected (samples and controls) and the amount of procollagen peptide secretion was quantified using a sandwich enzyme linked immuno-sorbant assay (ELISA) from Takara (#MK101). […] The color development was stopped and the color development was measured at 450 nm by a microplate reader.

[5] = system: elastin production in cultured human fibroblasts; test: Elastin Stimulation Assay; format: cell-based
Method: Elastin is a connective tissue protein that helps skin resume shape after stretching or contracting. Elastin is also an important load-bearing protein used in places where mechanical energy is required to be stored. Elastin is made by linking many soluble tropoelastin protein molecules, in a reaction catalyzed by lysyl oxidase. Elastin production was determined in cultured human fibroblasts incubated in the presence or absence of oligopeptide-1. It was determined that oligopeptide-1 increased elastin production by 23%.
Elastin secretion and elastin fibers were monitored by staining of cultured human fibroblasts using antibodies directed against elastin. Human fibroblasts were treated with or without oligopeptide-1. Following incubation, elastin content was measured using immunofluorescent antibodies directed against elastin.

| inhibits tyrosinase by [2] | Inhibition of Tyrosinase: Activity ([2]; negative = inhibition) | Molecule | inhibits melanogenesis by [1] | Inhibition of Melanogenesis: Activity ([1]; negative = inhibition) | inhibits TNF-α production in keratinocytes by [3] | Inhibition of TNF-α: Activity ([3]; negative = inhibition) | increased collagen stimulation by [4] | Collagen Stimulation: Activity ([4]; positive = increase) | increased elastin production by [5] | Elastin Production: Activity ([5]; positive = increase) |
| --- | --- | --- | --- | --- | --- | --- | --- | --- | --- | --- |
|  |  | NC(=O)c1cccnc1 [Niacinamide, 3-Pyridinecarboxamide] | 30% | −30% |  |  |  |  |  |  |
| 40% | −40% | caprooyl-Gly-His-Lys-Lys (Hexanoyl-GHKK) [Oligopeptide-1, modified tetrapeptide; Lucas Meyer, trade name ChroNOline] |  |  | 40% | −40% | 20% | +20% | 23% | +23% |
